# Measured values from patent US9694024B2 (priority 2010, dated 2017).
# “Also recorded” adds a separate entry of the source. Where two headings read alike, the source gives them in different places.
# Legend:
# human PBMCs [1] = experiment: Intracellular TFV-diphosphate in human PBMCs in vitro; details: human PBMCs (IL-2/PHA) after incubation with 1 μM CMX157 for 48 hours
# [2] = cited from earlier work
# HIV-1IIIB = experiment: Anti-HIV-1 cytoprotection assay (CEM-SS, XTT)
# CEM-SS cells = experiment: Toxicity XTT in CEM-SS cells
# human PBMCs [3] = details: activated human PBMCs, cited from earlier work
# [4] = target: human OAT3 (organic anion transporter3) (Homo sapiens (Human), UniProt Q8TCC7); experiment: hOAT3 mediated uptake in MDCK-II cells; format: in vitro ADME; details: for Cellular Accumulation (control): control vector cells of hOAT3 test; for Cellular Accumulation (transporter): hOAT3 expressing MDCK-II cells
# Procedure: Experimental: The uptake test system was comprised of a polarized monolayer of MCDK-II cells grown on permeable supports. The MDCK-II cells were treated to express the transporter of interest or treated with a control vector.
# The uptake of 2 μM [^3H]-p-aminohippurate (PAH) and 0.75 μM [^3H]-estrone-3-sulfate (E-3-S) in the absence and presence of the reference inhibitor was determined by radiometric detection. The uptake of CMX157 and tenofovir was in the absence and presence of the reference inhibitor or 20% human serum was determined by LC/MS/MS. Experiments were performed under the same conditions for the cells expressing the transporter or those treated with the control vector.
# Net Transporter Mediated Uptake=(Cellular accumulation in the presence of the transporter)−(Cellular accumulation in the absence of the transporter) Results: The net hOAT1 mediated uptake of tenofovir in the presence and absence of 100 μM probenecid or 20% human serum is shown in FIG. 8. The transport of tenofovir is inhibited by probenecid and relatively unchanged by the presence of 20% human serum. OAT3 also appeared to mediate the transport of tenofovir. The effect of probenecid, however, was minimal. The presence of 20% human serum in the OAT3 experiment reduced the OAT3 mediated transport of tenofovir.
# [5] = target: human OAT1 (organic anion transporter1) (Homo sapiens (Human), UniProt Q4U2R8); experiment: hOAT1 mediated uptake in MDCK-II cells; details: for Cellular Accumulation (control): control vector cells of hOAT1 test; for Cellular Accumulation (transporter): hOAT1 expressing MDCK-II cells
# [6] = Phase I single dose study, TFV-diphosphate in PBMCs of healthy volunteers; format: in vivo, human; details: single 400 mg dose of CMX157
# Procedure: (§1) The study was a randomized, blinded, dose escalation trial to evaluate safety, tolerability, and pharmacokinetics. Healthy volunteers in each cohort (6 active/2 placebo) received a single dose of 25, 50, 100, 200 or 400 mg. An additional cohort received a standard dose of Viread for comparison of TFV-PP levels. For tenofovir anabolite analysis, PBMCs were lysed with 70% ice cold methanol and centrifuged; supernatants were analyzed using LC/MS/MS. The clinical samples were split into two aliquots. One aliquot was used for analysis of CMX157; following addition of an internal standard, these samples were evaporated to dryness prior to reconstitution and analysis. The second aliquot was for analysis of TFV, TFV-monophosphate and TFV-diphosphate; following addition of internal standards, samples were vortexed and centrifuged prior to analysis.
# XMRV = XMRV antiviral cytoprotection assay (PG-4 cells, XTT); format: cell-based; details: 144 h, 6 day assay, read-out: EC50s for XMRV
# Procedure: An XMRV antiviral cytoprotection assay was conducted using PG-4 cells (ATCC# CRL-2032; feline astrocytes) and XMRV was collected from the supernatant of 22Rv1 human prostate cancer cells (ATCC# CRL-2505). Inhibition of cytopathic effect was quantified using XTT following a 6 day assay. Ribavirin and AZT were evaluated in parallel as control compounds.
# HIV-1 subtypes (A-G, O) = experiment: Activity against HIV-1 subtypes in PBMCs; format: cell-based; details: Human immunodeficiency virus 1, PBMC
# [7] = Phase I single dose study, plasma pharmacokinetics; format: in vivo, human; details: for Cmax / AUC(0-inf): human; for Cmax / AUC(0-inf) / TFV AUCINF / TFV Cmax: plasma; for AUC(0-inf): read-out: CMX157 AUCINF
# Procedure: as §1
# [8] = Phase I single dose study, safety and tolerability; format: in vivo, human; details: healthy volunteers, single doses 25 mg to 400 mg
# Procedure: as §1
# [9] = Human immunodeficiency virus 1, IIIB, CEM-SS, 144 h, read-out: CEMSS/IIIB EC50
# [10] = hOAT3, substrate alone (E3S 0.75 μM)
# [11] = hOAT1, substrate alone (PAH 2 μM)
# [12] = single oral dose CMX157 200 mg, mean
# [13] = single oral dose CMX157 400 mg, mean
smiles,measurement,setting,value
"CC(Cn1cnc2c(N)ncnc21)OCP(=O)(O)OP(=O)(O)OP(=O)(O)O (stereo in doubt) [TFV-PP, tenofovir-diphosphate]",in vitro intracellular half-life of TFV-PP (t1/2),human PBMCs [1],79.2 h
same,median human TFV-PP,[2]; Kiser et al. JAIDS 2008:47,0.076 pmol/10^6
"Cc1cn([C@H]2C[C@H](N=[N+]=[N-])[C@@H](CO)O2)c(=O)[nH]c1=O [AZT, 3′-azido-2′,3′-dideoxythymidine, reference compound]",EC50,"HIV-1IIIB; Human immunodeficiency virus 1, IIIB, CEM-SS",3 nM
same,EC50,HIV-1IIIB; [9],3 nM
same,Therapeutic Index,"HIV-1IIIB; TC50/EC50, CEM-SS, HIV-1 IIIB",>33.3
same,CEMSS TC50,CEM-SS cells,>100 nM
CCCCCCCCCCCCCCCCOCCCOP(=O)([O-])CO[C@H](C)Cn1cnc2c(N)ncnc21.[K+] [CMX157 K^+ salt],EC50,"HIV-1IIIB; CEM-SS cells, HIV-1 IIIB",< 30 nM
same,EC50,"HIV-1IIIB; read-out: CEMSS/IIIB EC50, CEM-SS cells, HIV-1 IIIB, 6 days, XTT",< 30 nM
same,CEMSS TC50,CEM-SS cells,5200 nM
"CCCCCCCCCCCCCCCCOCCCOP(=O)(O)CO[C@H](C)Cn1cnc2c(N)ncnc21 [CMX157, 3-(hexadecyloxy)propyl hydrogen ((R)-1-(6-amino-9H-purin 9-yl)propan-2-yloxy)methylphosphonate]",TFV-diphosphate produced,human PBMCs [3]; 10 nM CMX157 (Lanier 2010),70 fmoles per million cells
same,substrate for human OAT3,[4],did not appear to be a substrate
same,Cellular Accumulation (control),[4]; + 100 μM probenecid,49.5 ± 2.65 pmol/min/cm^2
same,Cellular Accumulation (control),[4]; + 20% human serum,4.90 ± 1.57 pmol/min/cm^2
same,Cellular Accumulation (control),[4]; substrate alone (E3S 0.75 μM),39.5 ± 11.6 pmol/min/cm^2
same,Net Transporter Mediated Cellular Accumulation,"[4]; hOAT3, + 100 μM probenecid",−23.4 ± 7.59 pmol/min/cm^2
same,Net Transporter Mediated Cellular Accumulation,"[4]; hOAT3, + 20% human serum",1.26 ± 0.396 pmol/min/cm^2
same,Net Transporter Mediated Cellular Accumulation,[4]; [10],−8.72 pmol/min/cm^2
same,Cellular Accumulation (transporter),[4]; + 100 μM probenecid,26.1 ± 7.59 pmol/min/cm^2
same,Cellular Accumulation (transporter),[4]; + 20% human serum,6.16 ± 0.396 pmol/min/cm^2
same,Cellular Accumulation (transporter),[4]; substrate alone (E3S 0.75 μM),30.7 pmol/min/cm^2
same,Cellular Accumulation (control),[5]; + 100 μM probenecid,40.4 ± 5.17 pmol/min/cm^2
same,Cellular Accumulation (control),[5]; + 20% human serum,6.46 ± 0.168 pmol/min/cm^2
same,Cellular Accumulation (control),[5]; substrate alone (PAH 2 μM),50.3 ± 1.30 pmol/min/cm^2
same,Net Transporter Mediated Cellular Accumulation,"[5]; hOAT1, + 100 μM probenecid",−14.5 ± 4.65 pmol/min/cm^2
same,Net Transporter Mediated Cellular Accumulation,"[5]; hOAT1, + 20% human serum",−0.954 ± 1.70 pmol/min/cm^2
same,Net Transporter Mediated Cellular Accumulation,[5]; [11],−13.0 ± 0.0465 pmol/min/cm^2
same,Cellular Accumulation (transporter),[5]; + 100 μM probenecid,25.9 ± 4.65 pmol/min/cm^2
same,Cellular Accumulation (transporter),[5]; + 20% human serum,5.51 ± 1.70 pmol/min/cm^2
same,Cellular Accumulation (transporter),[5]; substrate alone (PAH 2 μM),37.3 ± 0.0465 pmol/min/cm^2
same,TFV-diphosphate in PBMCs,[6],measurable in all subjects; also recorded: measurable in PBMCs from all patients
same,TFV-diphosphate in PBMCs 6 days after dosing,[6],all but one had detectable levels
same,EC50,XMRV,3 to 500 nM
same,IC50,"HIV-1 subtypes (A-G, O); previously tested, read-out: IC50s against HIV-1 subtypes (A-G, O)",1 to 7 nM
same,EC50,"HIV-1 subtypes (A-G, O); read-out: EC50 against all major subtypes of HIV-1 in PBMCs",0.2 to 7.18 nM
same,change of CMX157 plasma Cmax and AUC with dose,[7]; 25 mg to 400 mg single oral dose,approximate linear increase; also recorded: increased linearly with dose
same,Cmax,"[7]; oral, all single dose groups (25 to 400 mg), read-out: Cmax levels",> 10 nM
same,AUC(0-inf),[7]; [12],210 ng·h/mL
same,Cmax,"[7]; single oral dose CMX157 200 mg, mean, read-out: CMX157 Cmax",74 ng/mL
same,AUC(0-inf),[7]; [13],376 ng·h/mL
same,Cmax,"[7]; single oral dose CMX157 400 mg, mean, read-out: CMX157 Cmax",165 ng/mL
same,serious and remarkable adverse events,[8],No SAEs or remarkable AEs were reported
same,subjects reporting mild headache,[8],3
same,tolerability,[8],well tolerated
C[C@H](Cn1cnc2c(N)ncnc21)OCP(=O)(O)OCCCO [CMX157-210],EC50,HIV-1IIIB; [9],> 10000 nM
same,CEMSS TC50,CEM-SS cells,>10000 nM
C[C@H](Cn1cnc2c(N)ncnc21)OCP(=O)(O)OCCCOCC(=O)O [CMX157-211],EC50,HIV-1IIIB; [9],> 10000 nM
same,CEMSS TC50,CEM-SS cells,>10000 nM
C[C@H](Cn1cnc2c(N)ncnc21)OCP(=O)(O)OCCCOCCCC(=O)O [CMX157-220],EC50,HIV-1IIIB; [9],> 10000 nM
same,CEMSS TC50,CEM-SS cells,>10000 nM
"C[C@]12CC[C@@H]3c4ccc(OS(=O)(=O)O)cc4CC[C@H]3[C@@H]1CCC2=O [E3S, estrone-3-sulfate]",Cellular Accumulation (control),[4]; substrate alone (E3S 0.75 μM),39.5 ± 11.6 pmol/min/cm^2
same,Net Transporter Mediated Cellular Accumulation,[4]; [10],−8.72 pmol/min/cm^2
same,Cellular Accumulation (transporter),[4]; substrate alone (E3S 0.75 μM),30.7 pmol/min/cm^2
"C[C@H](Cn1cnc2c(N)ncnc21)OCP(=O)(O)O [Tenofovir, (R)-9-(2-phosphonylmethoxypropyl)adenine, reference compound]",TFV-diphosphate produced,human PBMCs [3]; 1 μM TFV,50 fmoles per million cells
same,Cellular Accumulation (control),[4]; + 100 μM probenecid,1.94 ± 0.345 pmol/min/cm^2
same,Cellular Accumulation (control),[4]; + 20% human serum,2.28 ± 1.24 pmol/min/cm^2
same,Cellular Accumulation (control),[4]; substrate alone (E3S 0.75 μM),2.65 ± 1.96 pmol/min/cm^2
same,Net Transporter Mediated Cellular Accumulation,"[4]; hOAT3, + 100 μM probenecid",1.35 ± 0.364 pmol/min/cm^2
same,Net Transporter Mediated Cellular Accumulation,"[4]; hOAT3, + 20% human serum",−0.292 ± 0.0591 pmol/min/cm^2
same,Net Transporter Mediated Cellular Accumulation,[4]; [10],1.03 ± 0.591 pmol/min/cm^2
same,Cellular Accumulation (transporter),[4]; + 100 μM probenecid,3.29 ± 0.364 pmol/min/cm^2
same,Cellular Accumulation (transporter),[4]; + 20% human serum,1.99 ± 0.0591 pmol/min/cm^2
same,Cellular Accumulation (transporter),[4]; substrate alone (E3S 0.75 μM),3.68 ± 0.591 pmol/min/cm^2
same,substrate for human OAT1,[5]; MDCK,appeared to be a substrate
same,Cellular Accumulation (control),[5]; + 100 μM probenecid,2.22 ± 0.995 pmol/min/cm^2
same,Cellular Accumulation (control),[5]; + 20% human serum,1.77 ± 1.13 pmol/min/cm^2
same,Cellular Accumulation (control),[5]; substrate alone (PAH 2 μM),2.45 ± 0.197 pmol/min/cm^2
same,Net Transporter Mediated Cellular Accumulation,"[5]; hOAT1, + 100 μM probenecid",4.49 ± 1.46 pmol/min/cm^2
same,Net Transporter Mediated Cellular Accumulation,"[5]; hOAT1, + 20% human serum",20.0 ± 3.45 pmol/min/cm^2
same,Net Transporter Mediated Cellular Accumulation,[5]; [11],19.5 ± 4.04 pmol/min/cm^2
same,Cellular Accumulation (transporter),[5]; + 100 μM probenecid,6.71 ± 1.46 pmol/min/cm^2
same,Cellular Accumulation (transporter),[5]; + 20% human serum,21.8 ± 3.45 pmol/min/cm^2
same,Cellular Accumulation (transporter),[5]; substrate alone (PAH 2 μM),21.9 ± 4.04 pmol/min/cm^2
same,Cmax,[2]; VIREAD package insert 2007,~1000 nM
same,TFV AUCINF,[7]; [12],283 ng·h/mL
same,TFV Cmax,[7]; [12],16 ng/mL
same,TFV AUCINF,[7]; [13],371 ng·h/mL
same,TFV Cmax,[7]; [13],27 ng/mL
